Target: T1, BlaC β-lactamase (Mycobacterium tuberculosis, UniProt P9WKD3)
T1 sequence (P9WKD3 35-307): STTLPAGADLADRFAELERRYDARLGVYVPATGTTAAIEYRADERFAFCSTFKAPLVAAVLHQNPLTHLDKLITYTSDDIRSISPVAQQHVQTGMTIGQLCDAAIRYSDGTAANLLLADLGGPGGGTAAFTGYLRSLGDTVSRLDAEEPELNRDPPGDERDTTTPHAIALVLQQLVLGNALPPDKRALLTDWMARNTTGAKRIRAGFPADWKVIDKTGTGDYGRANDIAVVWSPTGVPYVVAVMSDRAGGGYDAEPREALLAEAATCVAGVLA
Test: biochemical

For `C[C@@H](O)[C@H]1C(=O)N2C(C(=O)O)=C(S[C@@H]3CN[C@H](C(=O)N(C)C)C3)[C@H](C)[C@H]12` [meropenem], the Ki was 1.1 ± 0.8 µM.

Reference: article PMC2679150 (Science (New York, N.Y.), 2009)
